From ChEMBL document CHEMBL1201862, “PubChem BioAssay data set” (2004)
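Assay format: 96-well plates, 48-hour exposure. GI50 marks 50% less growth.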 Calls of active or inactive are those of the source. Rule as the data show it: active = GI50 up to about 1.1 µM and inactive = higher.

What was measured:
Experiment in all cases: NCI anticancer screen, dose series, 48 h
786-0 = test system: 786-0
A498 = test system: A498
A549 = test system: A549
ACHN = test system: ACHN
BT-549 = test system: BT-549
CAKI-1 = test system: CAKI-1
CCRF-CEM = test system: CCRF-CEM
COLO 205 = test system: COLO 205
DU-145 = test system: DU-145
EKVX = test system: EKVX
HCC 2998 = test system: HCC 2998
HCT-116 = test system: HCT-116
HCT-15 = test system: HCT-15
HL-60 = test system: HL-60
HOP-62 = test system: HOP-62
HOP-92 = test system: HOP-92
HT-29 = test system: HT-29
Hs-578T = test system: Hs-578T
IGROV-1 = test system: IGROV-1
K562 = test system: K562
KM12 = test system: KM12
LOX IMVI = test system: LOX IMVI
M14 = test system: M14
MCF7 = test system: MCF7
MDA-MB-231 = test system: MDA-MB-231
MDA-MB-435 = test system: MDA-MB-435
MDA-N = test system: MDA-N
MOLT-4 = test system: MOLT-4
NCI-H226 = test system: NCI-H226
NCI-H23 = test system: NCI-H23
NCI-H460 = test system: NCI-H460
NCI-H522 = test system: NCI-H522
NCI/ADR-RES = test system: NCI/ADR-RES
OVCAR-3 = test system: OVCAR-3
OVCAR-4 = test system: OVCAR-4
OVCAR-5 = test system: OVCAR-5
OVCAR-8 = test system: OVCAR-8
PC-3 = test system: PC-3
RPMI-8226 = test system: RPMI-8226
RXF 393 = test system: RXF 393
SF-268 = test system: SF-268
SF-295 = test system: SF-295
SF-539 = test system: SF-539
SK-MEL-28 = test system: SK-MEL-28
SK-MEL-2 = test system: SK-MEL-2
SK-MEL-5 = test system: SK-MEL-5
SK-OV-3 = test system: SK-OV-3
SN12C = test system: SN12C
SNB-19 = test system: SNB-19
SNB-75 = test system: SNB-75
SR = test system: SR
SW-620 = test system: SW-620
T47D = test system: T47D
TK-10 = test system: TK-10
U-251 = test system: U-251
UACC-257 = test system: UACC-257
UACC-62 = test system: UACC-62
UO-31 = test system: UO-31
Malme-3M = test system: Malme-3M

Measured: GI50

C=CCC(CNC(=O)OCc1ccccc1)OC(=O)OCc1ccccc1 (stereo not drawn)
74.3 µM: HCT-15
inactive: 786-0 91.2 µM | A498 > 100 µM | A549 51.3 µM | ACHN > 100 µM | BT-549 > 100 µM | CAKI-1 > 100 µM | CCRF-CEM 47.4 µM | COLO 205 39.1 µM | DU-145 > 100 µM | EKVX 33.4 µM | HCC 2998 > 100 µM | HCT-116 51.9 µM | HL-60 34 µM | HOP-62 > 100 µM | HOP-92 52.6 µM | HT-29 36.3 µM | Hs-578T > 100 µM | IGROV-1 > 100 µM | K562 37.3 µM | KM12 48.1 µM | LOX IMVI > 100 µM | M14 > 100 µM | MCF7 39.1 µM | MDA-MB-231 > 100 µM | MDA-MB-435 57 µM | MDA-N 47.1 µM | MOLT-4 25.8 µM | NCI-H226 > 100 µM | NCI-H23 43.9 µM | NCI-H460 > 100 µM | NCI-H522 62.1 µM | NCI/ADR-RES > 100 µM | OVCAR-3 63.2 µM | OVCAR-4 69.8 µM | OVCAR-5 > 100 µM | OVCAR-8 69 µM | PC-3 48.3 µM | RPMI-8226 26.1 µM | RXF 393 > 100 µM | SF-268 > 100 µM | SF-295 55.5 µM | SF-539 > 100 µM | SK-MEL-28 > 100 µM | SK-MEL-2 48.2 µM | SK-MEL-5 22 µM | SK-OV-3 > 100 µM | SN12C > 100 µM | SNB-19 > 100 µM | SNB-75 > 100 µM | SR 21.8 µM | SW-620 > 100 µM | T47D 47.8 µM | TK-10 > 100 µM | U-251 > 100 µM | UACC-257 73.3 µM | UACC-62 93.5 µM | UO-31 > 100 µM

O=C(O)c1cc(-c2ccncc2)nc2ccccc12
inactive: 786-0 > 100 µM | A498 > 100 µM | A549 > 100 µM | ACHN > 100 µM | BT-549 > 100 µM | CAKI-1 > 100 µM | COLO 205 > 100 µM | DU-145 > 100 µM | EKVX > 100 µM | HCC 2998 > 100 µM | HCT-116 > 100 µM | HL-60 > 100 µM | HOP-62 > 100 µM | HOP-92 > 100 µM | HT-29 > 100 µM | Hs-578T > 100 µM | IGROV-1 > 100 µM | K562 > 100 µM | KM12 > 100 µM | LOX IMVI > 100 µM | M14 > 100 µM | MCF7 > 100 µM | MDA-MB-231 > 100 µM | MDA-MB-435 > 100 µM | MDA-N > 100 µM | MOLT-4 > 100 µM | Malme-3M > 100 µM | NCI-H226 > 100 µM | NCI-H23 > 100 µM | NCI-H460 > 100 µM | NCI-H522 > 100 µM | NCI/ADR-RES > 100 µM | OVCAR-3 > 100 µM | OVCAR-4 > 100 µM | OVCAR-5 > 100 µM | OVCAR-8 > 100 µM | PC-3 > 100 µM | RPMI-8226 > 100 µM | RXF 393 > 100 µM | SF-268 > 100 µM | SF-295 > 100 µM | SF-539 > 100 µM | SK-MEL-28 > 100 µM | SK-MEL-2 > 100 µM | SK-MEL-5 > 100 µM | SK-OV-3 > 100 µM | SN12C > 100 µM | SNB-19 > 100 µM | SR > 100 µM | SW-620 > 100 µM | T47D > 100 µM | TK-10 > 100 µM | U-251 > 100 µM | UACC-257 > 100 µM | UACC-62 > 100 µM | UO-31 > 100 µM
> 100 µM: HCT-15

CN(C)CCc1c2c(nc3ccccc13)C(=O)c1cccnc1C2=O
0.0348 µM: HCT-15
active: 786-0 0.121 µM | A498 0.597 µM | ACHN 0.084 µM | BT-549 0.268 µM | CAKI-1 0.582 µM | CCRF-CEM 0.682 µM | DU-145 0.126 µM | HCT-116 0.0838 µM | HL-60 0.0486 µM | IGROV-1 0.542 µM | K562 0.154 µM | KM12 0.173 µM | LOX IMVI < 0.0476 µM | M14 0.102 µM | MCF7 0.122 µM | MDA-MB-231 0.385 µM | MDA-MB-435 0.331 µM | MDA-N 0.352 µM | Malme-3M 0.49 µM | NCI-H226 0.0902 µM | NCI-H23 0.322 µM | NCI-H460 0.0826 µM | NCI-H522 0.175 µM | NCI/ADR-RES 0.119 µM | OVCAR-3 0.0513 µM | OVCAR-4 0.31 µM | OVCAR-8 0.184 µM | PC-3 0.313 µM | RPMI-8226 0.488 µM | RXF 393 0.172 µM | SF-268 0.238 µM | SF-295 0.203 µM | SF-539 0.168 µM | SK-MEL-28 0.492 µM | SK-MEL-5 0.177 µM | SK-OV-3 0.479 µM | SN12C 0.277 µM | SNB-19 0.652 µM | SNB-75 0.42 µM | SR 0.0456 µM | SW-620 0.0873 µM | U-251 0.176 µM | UACC-257 0.214 µM | UACC-62 0.175 µM | UO-31 0.197 µM
inactive: A549 1.24 µM | COLO 205 1.97 µM | EKVX 1.55 µM | HCC 2998 1.35 µM | HOP-92 1.49 µM | HT-29 1.55 µM | Hs-578T 1.15 µM | MOLT-4 2.57 µM | OVCAR-5 1.18 µM | SK-MEL-2 1.17 µM | T47D 1.83 µM | TK-10 1.3 µM
